# Laboratory results published in US20180243290A1, “MORPHINAN COMPOUNDS FOR TREATING AGITATION” (Concert Pharmaceuticals, Inc., priority 2015, published 2018).
# Columns and labels:
# [1] = healthy human males; cited from earlier work
# [2] = Metabolic stability in extensive metabolizer human liver microsomes with and without quinidine; type: in vitro ADME; conditions: for CLint scaled at 100 ng/mL / half-life at 100 ng/mL: human; for CLint scaled at 100 ng/mL / Clint, app Ratio (respective to 0 concentration of Quinidine) / t1/2 Ratio (respective to 0 concentration of Quinidine) / % Δ (D6-Dimemorfan/Dimemorfan) of t1/2 / Clint, app Ratio (D6-Dimemorfan/Dimemorfan): EM HLM; for half-life at 100 ng/mL: EM HLM 1.0 mg/mL, 100 ng/mL test compound, 60 min
# Experimental: Individual donor with extensive metabolizer human liver microsomes (EM HLM) (20 mg/mL) with CYP2D6 activity of 957±19 pmol/mg protein/min, genotyped for CYP2D6 allelic variant-CYP2D6*1/*2x2, were obtained from Xenotech, LLC (Lenexa, Kans.). β-nicotinamide adenine dinucleotide phosphate, reduced form (NADPH), magnesium chloride (MgCl2), dimethyl sulfoxide (DMSO), acetonitrile (ACN), quinidine, and dextromethorphan (DM) were purchased from Sigma-Aldrich. Dimemorfan and d6-dimemorfan (Compound 100) were synthesized by Adesis, Inc.
# 1.0 mg/mL stock solutions of test compounds dextromethorphan (DM), dimemorfan, and d6-dimemorfan (Compound 100) were prepared in DMSO. The 1.0 mg/mL stock solutions were diluted to 10,000 ng/mL in acetonitrile (ACN). A 10 mM stock solution of quinidine was prepared in acetonitrile, which was then diluted further in acetonitrile to produce 20 μM, 10 μM, 5 μM, 2.5 μM, and 1.25 μM solutions of quinidine. The human liver microsomes were diluted to 1.25 mg/mL in 0.1 M potassium phosphate buffer, pH 7.4, containing 3 mM MgCl2. The diluted microsomes were added to wells of a 96-well deep-well polypropylene plate in triplicate. A 5 μL aliquot of each 10,000 ng/mL test compound was added to the microsomes, and the mixture was pre-warmed at 37° C. for 7 minutes, then a 5 μL aliquot of each quinidine solution was added (except in control wells where no quinidine was added). Reactions were initiated by addition of pre-warmed NADPH solution to the mixture. The final reaction volume was 0.5 mL and contained 1.0 mg/mL human liver microsomes, 100 ng/mL of test compound, 0.2, 0.1, 0.05, 0.025, 0.0125, or 0 μM of quinidine, and 2 mM NADPH in 0.1 M potassium phosphate buffer, pH 7.4, and 3 mM MgCl2. The reaction mixtures were incubated at 37° C., and 50 μL aliquots were removed at 0, 15, 30, and 60 minutes and added to shallow-well 96-well plates which contained 50 μL of ice-cold ACN with internal standard to stop the reactions. The plates were stored at 4° C. for 20 minutes after which 100 μL of water was added to the wells of the plate before centrifugation to pellet precipitated proteins. Supernatants were transferred to another 96-well plate and analyzed for amounts of parent remaining by LC-MS/MS using an Applied Bio-systems mass spectrometer. Amount of parent remaining was quantified via standard curve.
# The in vitro till's for test compounds were calculated from the slopes of the linear regression of % parent remaining (1n) vs. incubation time relationship.
# k=−[slope of linear regression of % parent remaining(ln) vs incubation time]
# The apparent intrinsic clearance was calculated using the following equation:
# CLint (mL/min/kg)=(0.693/in vitro t1/2) (Incubation Volume/mg of microsomes) • (45 mg microsomes/gram of liver) (20 gm of liver/kg b.w.)
# Data analysis was performed using Microsoft Excel Software.
# [3] = pH 7.4, with none (quinidine 0 µM, control), quinidine 0 μM
# [4] = pH 7.4, with quinidine 0.0125 µM, quinidine 0.0125 μM
# [5] = pH 7.4, with quinidine 0.025 µM, quinidine 0.025 μM
# [6] = pH 7.4, with quinidine 0.05 µM, quinidine 0.05 μM
# [7] = pH 7.4, with quinidine 0.1 µM, quinidine 0.1 μM
# [8] = pH 7.4, with quinidine 0.2 µM, quinidine 0.2 μM
SMILES,"CLint scaled at 100 ng/mL [2, 3] [mL/min/kg]","half-life at 100 ng/mL [2, 3] [min]","CLint scaled at 100 ng/mL [2, 4] [mL/min/kg]","half-life at 100 ng/mL [2, 4] [min]","CLint scaled at 100 ng/mL [2, 5] [mL/min/kg]","half-life at 100 ng/mL [2, 5] [min]","CLint scaled at 100 ng/mL [2, 6] [mL/min/kg]","half-life at 100 ng/mL [2, 6] [min]","CLint scaled at 100 ng/mL [2, 7] [mL/min/kg]","half-life at 100 ng/mL [2, 7] [min]","CLint scaled at 100 ng/mL [2, 8] [mL/min/kg]","half-life at 100 ng/mL [2, 8] [min]","Clint, app Ratio (respective to 0 concentration of Quinidine) ([2]; quinidine 0 μM)",t1/2 Ratio (respective to 0 concentration of Quinidine) ([2]; quinidine 0 μM),"Clint, app Ratio (respective to 0 concentration of Quinidine) ([2]; quinidine 0.0125 μM)",t1/2 Ratio (respective to 0 concentration of Quinidine) ([2]; quinidine 0.0125 μM),"Clint, app Ratio (respective to 0 concentration of Quinidine) ([2]; quinidine 0.025 μM)",t1/2 Ratio (respective to 0 concentration of Quinidine) ([2]; quinidine 0.025 μM),"Clint, app Ratio (respective to 0 concentration of Quinidine) ([2]; quinidine 0.05 μM)",t1/2 Ratio (respective to 0 concentration of Quinidine) ([2]; quinidine 0.05 μM),other results
"Cc1ccc2c(c1)[C@]13CCCC[C@@H]1[C@H](C2)N(C)CC3 [Dimemorfan, (+)-(9α,13α,14α)-3,17-dimethylmorphinan]",64.9,4.81,50.8,6.34,24.7,12.8,19.3,16.2,12.2,25.5,7.4,43.1,1.0,1.0,0.78,1.3,0.38,2.7,0.30,3.4,"fraction of a dose metabolized [1]: Greater than 98%; Clint, app Ratio (respective to 0 concentration of Quinidine) ([2]; quinidine 0.1 μM): 0.19; t1/2 Ratio (respective to 0 concentration of Quinidine) ([2]; quinidine 0.1 μM): 5.3; Clint, app Ratio (respective to 0 concentration of Quinidine) ([2]; quinidine 0.2 μM): 0.11; t1/2 Ratio (respective to 0 concentration of Quinidine) ([2]; quinidine 0.2 μM): 9.0"
[2H]C([2H])([2H])c1ccc2c(c1)[C@]13CCCC[C@@H]1[C@H](C2)N(C([2H])([2H])[2H])CC3 [D6-Dimemorfan],48.2,6.5,30.9,10.1,23.6,13.2,17.3,18,10,31.1,8.2,37.9,1.0,1.0,0.64,1.6,0.49,2.0,0.36,2.8,"% Δ (D6-Dimemorfan/Dimemorfan) of t1/2 ([2]; quinidine 0 μM): 35%; Clint, app Ratio (D6-Dimemorfan/Dimemorfan) ([2]; quinidine 0 μM): 0.74; % Δ (D6-Dimemorfan/Dimemorfan) of t1/2 ([2]; quinidine 0.0125 μM): 59%; Clint, app Ratio (D6-Dimemorfan/Dimemorfan) ([2]; quinidine 0.0125 μM): 0.61; % Δ (D6-Dimemorfan/Dimemorfan) of t1/2 ([2]; quinidine 0.025 μM): 3%; Clint, app Ratio (D6-Dimemorfan/Dimemorfan) ([2]; quinidine 0.025 μM): 0.96; % Δ (D6-Dimemorfan/Dimemorfan) of t1/2 ([2]; quinidine 0.05 μM): 11%; Clint, app Ratio (D6-Dimemorfan/Dimemorfan) ([2]; quinidine 0.05 μM): 0.90; % Δ (D6-Dimemorfan/Dimemorfan) of t1/2 ([2]; quinidine 0.1 μM): 22%; Clint, app Ratio (D6-Dimemorfan/Dimemorfan) ([2]; quinidine 0.1 μM): 0.82; Clint, app Ratio (respective to 0 concentration of Quinidine) ([2]; quinidine 0.1 μM): 0.21; t1/2 Ratio (respective to 0 concentration of Quinidine) ([2]; quinidine 0.1 μM): 4.8; % Δ (D6-Dimemorfan/Dimemorfan) of t1/2 ([2]; quinidine 0.2 μM): −12%; Clint, app Ratio (D6-Dimemorfan/Dimemorfan) ([2]; quinidine 0.2 μM): 1.11; Clint, app Ratio (respective to 0 concentration of Quinidine) ([2]; quinidine 0.2 μM): 0.17; t1/2 Ratio (respective to 0 concentration of Quinidine) ([2]; quinidine 0.2 μM): 5.8"
"COc1ccc2c(c1)[C@]13CCCC[C@@H]1[C@H](C2)N(C)CC3 [DM, (+)-3-methoxy-17-methyl-(9α,13α,14α)-morphinan]",15.4,20.5,12.1,25.6,10.6,29.6,9.5,33,7.4,42.1,4.8,64.5,1.0,1.0,0.79,1.2,0.69,1.4,0.62,1.6,"Clint, app Ratio (respective to 0 concentration of Quinidine) ([2]; quinidine 0.1 μM): 0.48; t1/2 Ratio (respective to 0 concentration of Quinidine) ([2]; quinidine 0.1 μM): 2.1; Clint, app Ratio (respective to 0 concentration of Quinidine) ([2]; quinidine 0.2 μM): 0.31; t1/2 Ratio (respective to 0 concentration of Quinidine) ([2]; quinidine 0.2 μM): 3.1"
